# US20100249145A1, “Inhibitors of VEGF Receptor and HGF Receptor Signaling” (Methylgene, Inc., priority 2005, published 2010)
# Legend:
# [1] = target: T1, recombinant human c-Met/HGF receptor (Homo sapiens, UniProt P08581); experiment: In vitro receptor tyrosine kinase assay (DELFIA), c-Met/HGF receptor; type: biochemical; conditions: Table 30; ATP 10 uM, enzyme 25 nM; read-out: C-Met (enz.) (IC50)
# T1 construct: His tag (histidine tag from pBlueBacHis2A); made in house; host or cells: Hi-5 cells (Trichoplusia ni), recombinant baculovirus
# T1 sequence (P08581 1078-1337): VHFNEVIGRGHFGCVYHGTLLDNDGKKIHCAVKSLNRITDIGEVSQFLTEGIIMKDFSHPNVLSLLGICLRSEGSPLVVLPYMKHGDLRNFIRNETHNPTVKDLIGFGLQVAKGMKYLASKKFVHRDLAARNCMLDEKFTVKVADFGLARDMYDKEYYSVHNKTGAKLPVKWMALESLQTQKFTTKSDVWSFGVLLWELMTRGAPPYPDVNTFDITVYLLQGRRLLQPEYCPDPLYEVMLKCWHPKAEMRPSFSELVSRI
# VEGF receptor KDR = target: T2, VEGF receptor KDR (Homo sapiens, UniProt P35968); experiment: In vitro receptor tyrosine kinase assay (DELFIA), VEGF receptor KDR; type: biochemical; conditions: Table 30; ATP 0.6 uM, enzyme 5 nM; read-out: VEGF(enz.) (IC50)
# T2 construct: made in house; host or cells: Sf9 cells (Spodoptera frugiperda), recombinant baculovirus
# T2 sequence (P35968 806-1356): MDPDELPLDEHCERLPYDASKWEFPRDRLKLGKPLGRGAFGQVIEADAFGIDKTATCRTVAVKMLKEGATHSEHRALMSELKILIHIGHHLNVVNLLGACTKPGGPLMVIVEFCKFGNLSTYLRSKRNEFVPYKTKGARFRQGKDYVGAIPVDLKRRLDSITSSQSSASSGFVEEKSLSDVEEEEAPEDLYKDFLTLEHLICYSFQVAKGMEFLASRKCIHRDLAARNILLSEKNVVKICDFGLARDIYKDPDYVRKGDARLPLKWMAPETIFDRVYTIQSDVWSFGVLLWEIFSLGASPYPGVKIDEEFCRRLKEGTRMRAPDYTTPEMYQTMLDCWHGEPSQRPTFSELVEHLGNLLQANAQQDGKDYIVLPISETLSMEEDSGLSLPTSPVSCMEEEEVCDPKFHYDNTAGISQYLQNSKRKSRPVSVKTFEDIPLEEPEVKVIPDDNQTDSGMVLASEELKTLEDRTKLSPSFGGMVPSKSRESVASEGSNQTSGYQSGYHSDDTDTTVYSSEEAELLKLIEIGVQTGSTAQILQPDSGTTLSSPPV
# TPR-MET fusion protein = TPR-MET fusion protein (Homo sapiens, UniProt P08581); experiment: C-Met phosphorylation cell-based assay (MNNGHOS cells, immunoblot); conditions: Table 30, 3 hours treatment, read-out: C-Met cell-based Y1230-34-35 tpr-met inhibition (IC50)
# TPR-MET fusion protein, sequence (P08581 with tags, fused parts or gaps): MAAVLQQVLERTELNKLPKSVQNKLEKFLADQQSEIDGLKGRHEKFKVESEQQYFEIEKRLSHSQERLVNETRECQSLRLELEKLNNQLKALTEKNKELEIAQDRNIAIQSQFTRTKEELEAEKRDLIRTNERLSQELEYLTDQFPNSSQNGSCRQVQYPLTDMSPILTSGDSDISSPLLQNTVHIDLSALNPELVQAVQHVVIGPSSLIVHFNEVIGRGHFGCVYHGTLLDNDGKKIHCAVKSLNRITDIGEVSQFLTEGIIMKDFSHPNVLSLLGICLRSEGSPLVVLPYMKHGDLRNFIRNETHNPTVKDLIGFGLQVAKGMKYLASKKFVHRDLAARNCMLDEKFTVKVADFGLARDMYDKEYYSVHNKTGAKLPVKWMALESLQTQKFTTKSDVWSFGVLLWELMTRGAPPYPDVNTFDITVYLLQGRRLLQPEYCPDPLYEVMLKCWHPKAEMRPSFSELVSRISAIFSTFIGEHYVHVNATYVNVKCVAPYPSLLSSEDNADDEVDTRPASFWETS
# Excerpt: C-Met Phosphorylation Cell-Based Assay
# U87 cells = experiment: In vivo solid tumor disease model, U87 xenograft; parameters: species or system female athymic CD 1 mice; conditions: U87MG
# Excerpt: (§1) In Vivo Solid Tumor Disease Model
# (§2) This test measures the capacity of compounds to inhibit solid tumor growth.
# (§3) Tumor xenografts were established in the flank of female athymic CD 1 mice (Charles River Inc.), by subcutaneous injection of 1×10^6U87, A431 or SKLMS cells/mouse. Once established, tumors were then serially passaged s.c. in nude mice hosts. Tumor fragments from these host animals were used in subsequent compound evaluation experiments. For compound evaluation experiments female nude mice weighing approximately 20 g were implanted s.c. by surgical implantation with tumor fragments of ˜30 mg from donor tumors. When the tumors were approximately 100 mm^3 in size (˜7-10 days following implantation), the animals were randomized a separated into treatment and control groups. Each group contained 6-8 tumor-bearing mice, each of which was ear-tagged and followed individually throughout the experiment
# (§4) Mice were weighed and tumor measurements are taken by calipers three times weekly, starting on Day 1. These tumor measurements were converted to tumor volume by the well-known formula (L+W/4)^34/3π. The experiment was terminated when the control tumors reached a size of approximately 1500 mm^3. In this model, the change in mean tumor volume for a compound treated group/the change in mean tumor volume of the control group (non-treated or vehicle treated)×100 (ΔT/ΔC) was subtracted from 100 to give the percent tumor growth inhibition (% TGI) for each test compound. In addition to tumor volumes, body weight of animals were monitored twice weekly for up to 3 weeks.
# (§5) Regiment of administration was once daily.
# A431 cells = experiment: In vivo solid tumor disease model, A431 xenograft; parameters: species or system female athymic CD 1 mice; conditions: 30 mg/kg once daily IP, vehicle DMSO
# Excerpt: as §1, §2, §3, §4, §5
# A549 = experiment: In vivo solid tumor disease model, A549 xenograft; parameters: species or system female athymic CD 1 mice
# DU145 = experiment: In vivo solid tumor disease model, DU145 xenograft; parameters: species or system female athymic CD 1 mice; conditions: vehicle DMSO, 10 days
# MNNG-HOS = experiment: In vivo solid tumor disease model, MNNG-HOS xenograft; parameters: species or system female athymic CD 1 mice; conditions: 14 days
# SKLMS cells = experiment: In vivo solid tumor disease model, SKLMS xenograft; parameters: species or system female athymic CD 1 mice; conditions: SKLMS40, 30 mg/kg once daily IP, vehicle DMSO
# Excerpt: as §1, §2, §3, §4, §5
# MKN74 = experiment: In vivo solid tumor disease model, MKN74 xenograft; parameters: species or system female athymic CD 1 mice; conditions: vehicle DMSO, 10 days
# SW48 = experiment: In vivo solid tumor disease model, SW48 xenograft; parameters: species or system female athymic CD 1 mice; conditions: 30 mg/kg once daily IP, vehicle DMSO, 14 days
# HCT116 = experiment: In vivo solid tumor disease model, HCT116 xenograft; parameters: species or system female athymic CD 1 mice; conditions: HCT116, vehicle DMSO
# MDA-MB-231 = experiment: In vivo solid tumor disease model, MDA-MB-231 xenograft; parameters: species or system female athymic CD 1 mice; conditions: 75 mg/kg once daily PO, vehicle 0.5% CMC in acetate buffer (pH 4.0), 14 days
# MV4-11 = experiment: In vivo solid tumor disease model, MV4-11 xenograft; parameters: species or system female athymic CD 1 mice; conditions: 20 mg/kg once daily p.o., 14 days
# [2] = 15 mg/kg once daily IV, vehicle 50/50 DMSO:40/60 PEG/0.2 N HCl in saline, 10 days
# [3] = 30 mg/kg once daily IV, vehicle 50/50 DMSO:40/60 PEG/0.2 N HCl in saline, 10 days
# [4] = 30 mg/kg once daily IP, vehicle DMSO, 14 days
# [5] = 15 mg/kg once daily IP, vehicle DMSO, 10 days
# [6] = 100 mg/kg once daily PO, vehicle 5% DMSO - 1% Tween-80 in water, 14 days
# [7] = 30 mg/kg once daily IP, 14 days
compound,measurement,setting,value
"O=C(Cc1ccccc1)NC(=S)Nc1ccc(Oc2ccnc3cc(C(=O)N4CCCC4)sc23)c(F)c1 [Example 37, 1-{3-Fluoro-4-[2-(pyrrolidine-1-carbonyl)-thieno[3,2-b]pyridin-7-yloxy]-phenyl}-3-phenylacetyl-thiourea]",IC50,[1],0.05 to 0.25 µM
same,IC50,VEGF receptor KDR,< 0.05 µM
same,IC50,TPR-MET fusion protein,< 0.05 µM
same,Tumor Growth Inhibition (%),U87 cells; [2],b (% TGI in the range of 50-74)
same,Tumor Growth Inhibition (%),U87 cells; [3],c (% TGI in the range of 25-49)
same,Tumor Growth Inhibition (%),A431 cells; 14 days,b (% TGI in the range of 50-74)
same,Tumor Growth Inhibition (%),A549; [4],c (% TGI in the range of 25-49)
same,Tumor Growth Inhibition (%),DU145; 15 mg/kg once daily IP,d (% TGI in the range of 0-24)
same,Tumor Growth Inhibition (%),DU145; 30 mg/kg once daily IP,d (% TGI in the range of 0-24)
Cn1cnc(-c2cc3nccc(Oc4ccc(NC(=S)NC(=O)Cc5ccc(F)cc5)cc4F)c3s2)c1 [drawing 494],Tumor Growth Inhibition (%),MNNG-HOS; 75 mg/kg once daily p.o.,"a* (greater than 100% tumor growth inhibition (i.e., tumor shrinkage))"
"CN(C)C(=O)c1cc2nccc(Oc3ccc(NC(=S)NC(=O)Cc4ccccc4)cc3F)c2s1 [Example 1, 1-(4-(2-(Dimethylcarbamoyl)thieno[3,2-b]pyridin-7-yloxy)-3-fluorophenyl)-3-(2-phenylacetyl)thiourea]",IC50,VEGF receptor KDR,< 0.05 µM
same,Tumor Growth Inhibition (%),U87 cells; [5],c (% TGI in the range of 25-49)
same,Tumor Growth Inhibition (%),"U87 cells; 30 mg/kg once daily IP, vehicle DMSO, 7 days",c (% TGI in the range of 25-49)
same,Tumor Growth Inhibition (%),U87 cells; [4],c (% TGI in the range of 25-49)
same,Tumor Growth Inhibition (%),"U87 cells; 30 mg/kg once daily IP, vehicle DMSO, 14 days (a* footnote class)","a* (greater than 100% tumor growth inhibition (i.e., tumor shrinkage))"
same,Tumor Growth Inhibition (%),U87 cells; [6],c (% TGI in the range of 25-49)
same,Tumor Growth Inhibition (%),SKLMS cells; 14 days,b (% TGI in the range of 50-74)
same,Tumor Growth Inhibition (%),A549; [4],b (% TGI in the range of 50-74)
same,Tumor Growth Inhibition (%),MKN74; 15 mg/kg once daily IP,d (% TGI in the range of 0-24)
same,Tumor Growth Inhibition (%),MKN74; 30 mg/kg once daily IP,c (% TGI in the range of 25-49)
same,Tumor Growth Inhibition (%),SW48,b (% TGI in the range of 50-74)
same,Tumor Growth Inhibition (%),HCT116; [7],c (% TGI in the range of 25-49)
Cn1cnc(-c2cc3nccc(Oc4ccc(NC(=S)NC(=O)Cc5ccc(F)cc5F)cc4F)c3s2)c1 [drawing 493],Tumor Growth Inhibition (%),MNNG-HOS; 40 mg/kg once daily p.o.,a (% TGI in the range of 75-100)
"COc1ccccc1CC(=O)NC(=S)Nc1ccc(Oc2ccnc3cc(-c4cn(C)cn4)sc23)c(F)c1 [Example 138, N-(3-Fluoro-4-(2-(1-methyl-1H-imidazol-4-yl)thieno[3,2-b]pyridin-7-yloxy)phenylcarbamothioyl)-2-(2-methoxyphenyl)acetamide]",Tumor Growth Inhibition (%),MDA-MB-231,b (% TGI in the range of 50-74)
CCn1cnc(-c2cc3nccc(Oc4ccc(NC(=S)NC(=O)Cc5ccccc5C)cc4F)c3s2)c1 [drawing 495],Tumor Growth Inhibition (%),MNNG-HOS; 20 mg/kg once daily p.o.,c (% TGI in the range of 25-49)
"Cn1cnc(-c2cc3nccc(Oc4ccc(NC(=S)NC(=O)Cc5ccccc5F)cc4F)c3s2)c1 [Example 137, N-(3-Fluoro-4-(2-(1-methyl-1H-imidazol-4-yl)thieno[3,2-b]pyridin-7-yloxy)phenylcarbamothioyl)-2-(2-fluorophenyl)acetamide]",Tumor Growth Inhibition (%),MDA-MB-231,b (% TGI in the range of 50-74)
"Cn1ccnc1-c1cc2nccc(Oc3ccc(NC(=S)NC(=O)Cc4ccccc4)cc3F)c2s1 [Example 15, N-(3-Fluoro-4-(2-(1-methyl-1H-imidazol-2-yl)thieno[3,2-b]pyridin-7-yloxy)phenylcarbamothioyl)-2-phenylacetamide]",IC50,VEGF receptor KDR,< 0.05 µM
same,Tumor Growth Inhibition (%),U87 cells; [5],b (% TGI in the range of 50-74)
same,Tumor Growth Inhibition (%),U87 cells; [2],b (% TGI in the range of 50-74)
same,Tumor Growth Inhibition (%),"U87 cells; 30 mg/kg once daily IP, vehicle DMSO, 10 days",b (% TGI in the range of 50-74)
same,Tumor Growth Inhibition (%),U87 cells; [4],b (% TGI in the range of 50-74)
same,Tumor Growth Inhibition (%),U87 cells; [3],b (% TGI in the range of 50-74)
same,Tumor Growth Inhibition (%),U87 cells; [6],a (% TGI in the range of 75-100)
same,Tumor Growth Inhibition (%),A431 cells; 14 days,b (% TGI in the range of 50-74)
same,Tumor Growth Inhibition (%),SKLMS cells; 10 days,b (% TGI in the range of 50-74)
same,Tumor Growth Inhibition (%),A549; [4],b (% TGI in the range of 50-74)
same,Tumor Growth Inhibition (%),"A549; 50 mg/kg once daily PO, vehicle 5% DMSO - 1% Tween-80 in water, 11 days",c (% TGI in the range of 25-49)
same,Tumor Growth Inhibition (%),"A549; 75 mg/kg once daily PO, vehicle 5% DMSO - 1% Tween-80 in water, 10 days",b (% TGI in the range of 50-74)
same,Tumor Growth Inhibition (%),"A549; 75 mg/kg once daily PO, vehicle 5% DMSO - 1% Tween-80 in water, 12 days",c (% TGI in the range of 25-49)
same,Tumor Growth Inhibition (%),MKN74; 15 mg/kg once daily IP,c (% TGI in the range of 25-49)
same,Tumor Growth Inhibition (%),MKN74; 30 mg/kg once daily IP,c (% TGI in the range of 25-49)
same,Tumor Growth Inhibition (%),"HCT116; 15 mg/kg once daily IP, 10 days",c (% TGI in the range of 25-49)
same,Tumor Growth Inhibition (%),"HCT116; 30 mg/kg once daily IP, 10 days",c (% TGI in the range of 25-49)
same,Tumor Growth Inhibition (%),DU145; 15 mg/kg once daily IP,d (% TGI in the range of 0-24)
C#Cc1ccccc1CC(=O)NC(=S)Nc1ccc(Oc2ccnc3cc(-c4cn(C)cn4)sc23)c(F)c1 [drawing 497],Tumor Growth Inhibition (%),MV4-11,a (% TGI in the range of 75-100)
"CCN(CC)C(=O)c1cc2nccc(Oc3ccc(NC(=S)NC(=O)Cc4ccccc4)cc3F)c2s1 [Example 7, 1-(4-(2-(diethylcarbamoyl)thieno[3,2-b]pyridin-7-yloxy)-3-fluorophenyl)-3-(2-phenylacetyl)thiourea]",IC50,[1],0.05 to 0.25 µM
same,IC50,VEGF receptor KDR,0.25 to 0.5 µM
same,IC50,TPR-MET fusion protein,0.05 to 0.25 µM
same,Tumor Growth Inhibition (%),SW48,c (% TGI in the range of 25-49)
same,Tumor Growth Inhibition (%),HCT116; [7],b (% TGI in the range of 50-74)
"O=C(Cc1ccccc1)NC(=S)Nc1ccc(Oc2ccnc3cc(-c4ccccn4)sc23)c(F)c1 [Example 13, 1-(4-(2-(Pyridin-2-yl)thieno[3,2-b]pyridin-7-yloxy)-3-fluorophenyl)-3-(2-phenylacetyl)thiourea]",IC50,VEGF receptor KDR,< 0.05 µM
same,Tumor Growth Inhibition (%),U87 cells; [4],a (% TGI in the range of 75-100)
same,Tumor Growth Inhibition (%),A431 cells; 7 days,b (% TGI in the range of 50-74)
same,Tumor Growth Inhibition (%),SKLMS cells; 10 days,b (% TGI in the range of 50-74)
same,Tumor Growth Inhibition (%),SW48,d (% TGI in the range of 0-24)
same,Tumor Growth Inhibition (%),DU145; 30 mg/kg once daily IP,d (% TGI in the range of 0-24)
